{"source": "paper PMC5007466", "about": "“VCP recruitment to mitochondria causes mitophagy impairment and neurodegeneration in models of Huntington's disease” (Nature Communications, 2016)", "key": {"YAC128 mice": {"tested_on": "YAC128 mice", "assay": "Stereology of NeuN-positive striatal neurons", "type": "in vivo, mouse", "conditions": "YAC128, 12 months of age, 3 mg/kg/day, n=6", "description": "YAC128 mice (Tg) and their age-matched wt littermates were implanted with an osmotic pump containing TAT control peptide or HV-3 peptide (3 mg/kg/day, each) starting from the age of 3 months. The pump was replaced once every month. By the age of 12 months, the treatments were terminated and the mouse samples were harvested for analysis.\nTo measure the number of NeuN-positive cells, a series of 25 μm thick coronal sections spaced 200 μm apart spanning the striatum were stained with NeuN antibody (Millipore, 1:500) and visualized by diaminobenzidine. For neuropathological analyses, brain sections were analysed stereologically. Briefly, unbiased stereological counts of NeuN-positive neurons within the striatum were performed using unbiased stereological principles and analysed with StereoInvestigator software (Microbrightfield, Williston, VT). Optical fractionator sampling was carried out on a Leica DM5000B microscope (Leica Microsystems, Bannockburn, IL) equipped with a motorized stage and Lucivid attachment ( × 40 objective). The following parameters were used in the final study: grid size, (X) 500 μm, (Y) 500 μm; Counting frame, (X) 68.2 μm, (Y) 75 μm, depth was 20 μm. […] The total volume of stratial tissue measured in each brain is calculated by StereoInvestigator and the neuronal density is presented as NeuN positive cell number per mm^3."}, "R6/2 mice": {"tested_on": "R6/2 mice", "assay": "DARPP-32 protein level in R6/2 striatal extracts", "type": "in vivo, mouse", "conditions": "3 mg kg^−1 per day, n=6", "description": "Male hemizygous R6/2 mice (Tg) and their age-matched wt littermates (5-week-old) were implanted with a 28-day osmotic pump (Alzet, Cupertino CA) containing TAT control peptide or HV-3 peptide, which delivered peptides to the mice at a rate of 3 mg kg^−1 per day. The first pump was implanted subcutaneously in the back of 5-week-old mice between the shoulders and replaced once, after 4 weeks.\nProtein concentrations were determined by Bradford assay. Protein was resuspended in Laemmli buffer, loaded on SDS–PAGE, and transferred onto nitrocellulose membranes. Membranes were probed with the indicated antibodies, followed by visualization with ECL. Representative blots have been cropped for presentation. Images of full-size blots are presented in Supplementary Fig. 9."}, "[1]": {"tested_on": "HdhQ111 mouse striatal cells", "assay": "Mitochondrial length and mitophagosomes by electron microscopy", "type": "cell-based", "conditions": "3 uM/day for 3 days, EM", "text": "The HdhQ7 and HdhQ111 cells were fixed by 2.5% glutaraldehyde in 0.1 M cacodylate buffer. Small pieces of the striata tissue of mice were fixed by immersion in triple aldehyde-DMSO. After rinsing in 0.1 M phosphate buffer (pH 7.3), the samples were post-fixed in ferrocyanide-reduced osmium tetroxide.\nThe above fixed samples were rinsed by water followed by overnight soaking in acidified uranyl acetate. After rinsing in distilled water, the blocks were dehydrated in ascending concentrations of ethanol, passed through propylene oxide, and embedded in Poly/Bed resin. Thin sections were sequentially stained with acidified uranyl acetate followed by a modification of Sato's triple lead stain. These sections were examined in a FEI Tecnai Spirit (T12) transmission electron microscope with a Gatan US4000 4kx4k CCD at the Case Western Reserve University EM core facility. Mitochondria from 15 random areas in each group were imaged by an experimenter blind to the experimental groups. The length of mitochondria was measured by NIH Image J software. The number of mitophagosomes per 100 μm^2 was counted. The number of gold particles labelling VCP on mitochondria were quantitated."}, "HD mouse striatal cells": {"tested_on": "HD mouse striatal cells", "assay": "Caspase-3 activity (apoptosis)", "type": "cell-based", "conditions": "24 h serum starvation, HV-3", "description": "mouse striatal cells were treated with thapsigargin (1μM) or tunicamycin (10μ g/ml) for 16 hours i n the presence or absence of HV -3 (3 µM). GRP78 total protein levels were determined by western blot analysis. Representative blots of three independent experiments are shown. Actin was used here as a loading control. (b) Tw e n t y -four hours of serum starvation was performed in HD mouse striatal cells.\nCaspase-3 activity analysis was performed in the indicated groups. Data are mean ± SEM of three independent experiments. (c) Flag-VCP and GFP-LC3B were co-transfected into HdhQ7 striatal cells.\nTotal lysates were isolated after 36 hours of transfection. The GFP -LC3B levels were examined by western blot analysis. Actin was used as a loading control. Histogram: quantitation of GFP-LC3B total protein level. Data are mean ± SEM of three independent experiments.\n(1 picture or pasted object on this page, not shown here)"}, "[2]": {"tested_on": "HD patient-iPS cell derived neurons", "assay": "Mitochondrial membrane potential (TMRM), iPS neurons", "type": "cell-based, human", "conditions": "1 μM per day for 5 days", "description": "iPS cells from a normal subject and a HD patient (carrying 41 CAG repeats) were differentiated into neurons using the protocol from our previous studies. Briefly, iPS cells were plated onto 6-well plates precoated with 2.5% Matrigel and allowed to reach 90% confluence in feeder-free medium. For the first 10 days, cells were treated with SB431542 (10 μM; Tocris Bioscience) and Noggin (100 ng/ml) in Neural Media (NM) containing Neurobasal and DMEM (1:1), B27 supplement minus vitamin A (50 × , Invitrogen), N2 supplement (100 × , Invitrogen), GlutaMax (Invitrogen, 100 × ), FGF2 ([…]) and EGF ([…]), 100 units per ml penicillin and 100 μg ml^−1 streptomycin). […]\nTo determine mitochondrial mass in cultures, cells were stained with antibodies against Tom20 or stained with Mitotracker green. The fluorescent density of Tom20 (1:500) or mitotracker green was quantitated using NIH Image J software. […] The images were visualized by microscope and quantitation of the density of red fluorescence was carried out using NIH ImageJ software. For immunocytochemistry study, at least 100 cells per group were counted and quantitated by an observer blind to experimental conditions."}}, "note": "“Also recorded” adds a separate entry of the source.", "data": [{"smiles": "CSCC[C@H](NC(=O)[C@@H](NC(=O)[C@H](CC(C)C)NC(=O)[C@@H](NC(=O)[C@H](Cc1c[nH]cn1)NC(=O)CCCCCNC(=O)[C@H](CCCNC(=N)N)NC(=O)[C@H](CCCNC(=N)N)NC(=O)[C@H](CCCNC(=N)N)NC(=O)[C@H](CCC(N)=O)NC(=O)[C@H](CCCNC(=N)N)NC(=O)[C@H](CCCNC(=N)N)NC(=O)[C@H](CCCCN)NC(=O)[C@H](CCCCN)NC(=O)[C@H](CCCNC(=N)N)NC(=O)CNC(=O)[C@@H](N)Cc1ccc(O)cc1)C(C)C)C(C)C)C(=O)N[C@@H](CS)C(=O)N[C@@H](C)C(=O)N[C@H](C(N)=O)[C@@H](C)O", "note": "[HV-3]", "values": [{"measurement": "NeuN-positive neurons in dorsolateral striatum", "setting": "YAC128 mice", "value": "significantly increased the number of neurons positive for anti-NeuN immunostaining"}, {"measurement": "DARPP-32 protein level", "setting": "R6/2 mice", "value": "significantly increased DARPP-32 levels in the two mouse models"}, {"measurement": "mitochondrial length", "setting": "[1]", "value": "increased mitochondrial length"}, {"measurement": "number of mitophagosomes", "setting": "[1]", "value": "reduced this accumulation; also recorded: greatly reduced the accumulation of mitophagosomes"}, {"measurement": "apoptosis (caspase-3 activity)", "setting": "HD mouse striatal cells", "value": "did not affect apoptosis"}, {"measurement": "mitochondrial membrane potential", "setting": "[2]", "value": "improved MMP"}]}]}
